Results taken from the kinase profiling compilation of Christmann-Franck et al. (2016).

What was measured:
Assay in all cases: KINOMEscan competition binding
Conditions in all cases: compound 10.0 µM
LIMK2 (human) = LIMK2 (human) (UniProt P53671)
TNNI3K (human) = TNNI3K (human) (UniProt Q59H18)
ALK (human) = ALK (human) (UniProt Q9UM73)
MAP3K5 (human) = MAP3K5 (human) (UniProt Q99683)
ROS1 (human) = ROS1 (human) (UniProt P08922)
NIM1 (human) = NIM1 (human) (UniProt Q8IY84)
IKBKB (human) = IKBKB (human) (UniProt O14920)
IKBKB (human), sequence (O14920 whole entry, looked up): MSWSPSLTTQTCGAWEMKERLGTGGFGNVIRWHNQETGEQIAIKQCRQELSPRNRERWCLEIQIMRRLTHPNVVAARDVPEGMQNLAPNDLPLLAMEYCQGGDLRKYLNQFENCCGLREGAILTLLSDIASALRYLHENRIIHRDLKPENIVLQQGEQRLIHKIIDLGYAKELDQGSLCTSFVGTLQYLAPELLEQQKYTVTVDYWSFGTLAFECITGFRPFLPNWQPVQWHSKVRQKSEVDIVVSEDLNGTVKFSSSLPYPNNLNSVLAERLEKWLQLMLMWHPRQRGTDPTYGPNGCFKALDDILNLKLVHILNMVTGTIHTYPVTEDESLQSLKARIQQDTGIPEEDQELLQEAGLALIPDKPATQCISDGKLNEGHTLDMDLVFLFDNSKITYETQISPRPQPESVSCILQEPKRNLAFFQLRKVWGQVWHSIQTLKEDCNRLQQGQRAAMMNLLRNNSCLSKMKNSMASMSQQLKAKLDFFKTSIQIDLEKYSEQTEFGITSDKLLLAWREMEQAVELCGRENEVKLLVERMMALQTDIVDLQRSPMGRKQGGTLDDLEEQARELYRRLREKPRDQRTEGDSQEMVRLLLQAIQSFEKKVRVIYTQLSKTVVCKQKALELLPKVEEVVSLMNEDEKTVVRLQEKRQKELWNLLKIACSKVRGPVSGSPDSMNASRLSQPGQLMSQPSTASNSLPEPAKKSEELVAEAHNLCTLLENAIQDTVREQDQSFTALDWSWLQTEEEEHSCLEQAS

CLK3 (human) = CLK3 (human) (UniProt P49761)
STK38 (human) = STK38 (human) (UniProt Q15208)
STK38 (human), sequence (Q15208 whole entry, looked up): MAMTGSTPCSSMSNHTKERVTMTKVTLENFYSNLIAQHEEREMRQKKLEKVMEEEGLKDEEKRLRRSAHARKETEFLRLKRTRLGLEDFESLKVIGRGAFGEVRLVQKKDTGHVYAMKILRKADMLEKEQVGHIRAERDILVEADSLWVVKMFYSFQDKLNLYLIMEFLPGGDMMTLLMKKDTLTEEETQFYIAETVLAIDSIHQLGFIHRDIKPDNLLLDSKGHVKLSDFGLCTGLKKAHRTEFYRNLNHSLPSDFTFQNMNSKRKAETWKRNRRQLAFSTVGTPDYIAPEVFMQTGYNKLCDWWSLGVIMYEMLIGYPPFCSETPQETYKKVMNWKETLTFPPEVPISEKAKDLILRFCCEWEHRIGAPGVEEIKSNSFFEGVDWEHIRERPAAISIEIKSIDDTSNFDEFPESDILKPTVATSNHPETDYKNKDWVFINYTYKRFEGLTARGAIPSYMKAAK

RPS6KA2 KD1 (human) = RPS6KA2 KD1 (human) (UniProt Q15349)
[1] = molecular target: JAK2 JH1 catalytic (human) (UniProt O60674)
PIK3C2B (human) = PIK3C2B (human) (UniProt O00750)
EPHA2 (human) = EPHA2 (human) (UniProt P29317)
EPHA2 (human), sequence (P29317 whole entry, looked up): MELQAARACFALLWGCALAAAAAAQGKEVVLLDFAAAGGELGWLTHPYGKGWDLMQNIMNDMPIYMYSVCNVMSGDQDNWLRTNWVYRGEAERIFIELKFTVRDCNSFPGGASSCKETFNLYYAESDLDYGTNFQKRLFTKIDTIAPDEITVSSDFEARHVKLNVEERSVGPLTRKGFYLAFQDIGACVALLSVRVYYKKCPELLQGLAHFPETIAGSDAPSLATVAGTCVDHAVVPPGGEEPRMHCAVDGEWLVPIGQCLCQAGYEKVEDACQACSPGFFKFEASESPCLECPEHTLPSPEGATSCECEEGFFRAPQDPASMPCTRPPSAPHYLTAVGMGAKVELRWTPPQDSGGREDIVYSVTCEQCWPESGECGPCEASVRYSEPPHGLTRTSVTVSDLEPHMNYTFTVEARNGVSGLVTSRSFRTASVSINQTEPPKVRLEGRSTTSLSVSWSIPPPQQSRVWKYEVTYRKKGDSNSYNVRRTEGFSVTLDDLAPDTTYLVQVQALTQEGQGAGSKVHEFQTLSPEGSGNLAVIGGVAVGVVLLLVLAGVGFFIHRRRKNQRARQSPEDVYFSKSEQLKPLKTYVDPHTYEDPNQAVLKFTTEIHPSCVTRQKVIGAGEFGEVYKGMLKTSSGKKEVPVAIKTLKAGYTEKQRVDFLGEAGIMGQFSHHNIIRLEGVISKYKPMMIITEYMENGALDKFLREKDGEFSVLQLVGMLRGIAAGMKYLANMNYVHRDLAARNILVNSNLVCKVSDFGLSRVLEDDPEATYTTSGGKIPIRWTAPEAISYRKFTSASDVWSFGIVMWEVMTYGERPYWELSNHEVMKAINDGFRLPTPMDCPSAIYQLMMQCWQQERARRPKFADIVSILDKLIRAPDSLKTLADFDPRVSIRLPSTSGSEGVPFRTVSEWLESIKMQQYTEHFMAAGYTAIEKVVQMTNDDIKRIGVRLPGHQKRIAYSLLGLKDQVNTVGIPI

MLTK (human) = MLTK (human) (UniProt Q9NYL2)
[2] = system: KIT (human), P10721 [A829P]
RIOK1 (human) = RIOK1 (human) (UniProt Q9BRS2)
DSTYK (human) = DSTYK (human) (UniProt Q6XUX3)
STK17A (human) = STK17A (human) (UniProt Q9UEE5)
SGK3 (human) = SGK3 (human) (UniProt Q96BR1)
SGK3 (human), sequence (Q96BR1 whole entry, looked up): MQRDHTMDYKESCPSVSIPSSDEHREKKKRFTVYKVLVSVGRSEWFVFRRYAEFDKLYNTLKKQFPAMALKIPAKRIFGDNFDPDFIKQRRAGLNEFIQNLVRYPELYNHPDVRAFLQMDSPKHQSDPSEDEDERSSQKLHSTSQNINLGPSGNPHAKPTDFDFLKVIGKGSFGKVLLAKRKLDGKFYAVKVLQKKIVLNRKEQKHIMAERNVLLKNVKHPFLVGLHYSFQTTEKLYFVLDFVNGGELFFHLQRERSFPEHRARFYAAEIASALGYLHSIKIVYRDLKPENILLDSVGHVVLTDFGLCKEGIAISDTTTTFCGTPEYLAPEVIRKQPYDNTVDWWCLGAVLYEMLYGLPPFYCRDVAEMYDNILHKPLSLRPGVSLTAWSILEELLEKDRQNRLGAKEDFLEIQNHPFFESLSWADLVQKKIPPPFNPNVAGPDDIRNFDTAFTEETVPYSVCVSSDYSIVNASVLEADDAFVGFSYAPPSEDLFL

MARK3 (human) = MARK3 (human) (UniProt P27448)
STK11 (human) = STK11 (human) (UniProt Q15831)
CDK9 (human) = CDK9 (human) (UniProt P50750)
CDK14 (human) = CDK14 (human) (UniProt O94921)
KDR (human) = KDR (human) (UniProt P35968)
STK36 (human) = STK36 (human) (UniProt Q9NRP7)
FLT4 (human) = FLT4 (human) (UniProt P35916)
PLK2 (human) = PLK2 (human) (UniProt Q9NYY3)
PLK2 (human), sequence (Q9NYY3 whole entry, looked up): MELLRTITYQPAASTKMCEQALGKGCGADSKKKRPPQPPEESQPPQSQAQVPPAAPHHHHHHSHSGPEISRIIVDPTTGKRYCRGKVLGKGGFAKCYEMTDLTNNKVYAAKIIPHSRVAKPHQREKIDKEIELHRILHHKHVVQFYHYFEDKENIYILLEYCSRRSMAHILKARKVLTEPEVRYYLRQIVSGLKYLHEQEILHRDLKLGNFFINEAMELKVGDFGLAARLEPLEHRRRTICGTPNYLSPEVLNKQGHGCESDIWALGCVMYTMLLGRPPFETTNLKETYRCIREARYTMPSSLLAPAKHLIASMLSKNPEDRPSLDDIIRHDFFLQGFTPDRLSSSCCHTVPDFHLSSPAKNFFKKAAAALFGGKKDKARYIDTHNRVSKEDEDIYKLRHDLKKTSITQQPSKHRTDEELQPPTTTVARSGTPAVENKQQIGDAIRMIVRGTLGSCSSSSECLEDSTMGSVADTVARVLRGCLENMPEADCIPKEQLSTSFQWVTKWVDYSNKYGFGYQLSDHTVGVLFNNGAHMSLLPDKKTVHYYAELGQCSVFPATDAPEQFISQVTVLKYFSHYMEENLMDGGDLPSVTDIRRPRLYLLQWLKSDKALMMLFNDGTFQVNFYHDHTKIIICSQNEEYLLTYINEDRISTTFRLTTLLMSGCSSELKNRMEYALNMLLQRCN

PDPK1 (human) = PDPK1 (human) (UniProt O15530)
CSF1R (human) = CSF1R (human) (UniProt P07333)
STK24 (human) = STK24 (human) (UniProt Q9Y6E0)
TBK1 (human) = TBK1 (human) (UniProt Q9UHD2)
RIPK1 (human) = RIPK1 (human) (UniProt Q13546)
GSK3B (human) = GSK3B (human) (UniProt P49841)
AURKA (human) = AURKA (human) (UniProt O14965)
EGFR (human) = EGFR (human) (UniProt P00533)
RPS6KA6 KD1 (human) = RPS6KA6 KD1 (human) (UniProt Q9UK32)
STK25 (human) = STK25 (human) (UniProt O00506)
LTK (human) = LTK (human) (UniProt P29376)
LTK (human), sequence (P29376 whole entry, looked up): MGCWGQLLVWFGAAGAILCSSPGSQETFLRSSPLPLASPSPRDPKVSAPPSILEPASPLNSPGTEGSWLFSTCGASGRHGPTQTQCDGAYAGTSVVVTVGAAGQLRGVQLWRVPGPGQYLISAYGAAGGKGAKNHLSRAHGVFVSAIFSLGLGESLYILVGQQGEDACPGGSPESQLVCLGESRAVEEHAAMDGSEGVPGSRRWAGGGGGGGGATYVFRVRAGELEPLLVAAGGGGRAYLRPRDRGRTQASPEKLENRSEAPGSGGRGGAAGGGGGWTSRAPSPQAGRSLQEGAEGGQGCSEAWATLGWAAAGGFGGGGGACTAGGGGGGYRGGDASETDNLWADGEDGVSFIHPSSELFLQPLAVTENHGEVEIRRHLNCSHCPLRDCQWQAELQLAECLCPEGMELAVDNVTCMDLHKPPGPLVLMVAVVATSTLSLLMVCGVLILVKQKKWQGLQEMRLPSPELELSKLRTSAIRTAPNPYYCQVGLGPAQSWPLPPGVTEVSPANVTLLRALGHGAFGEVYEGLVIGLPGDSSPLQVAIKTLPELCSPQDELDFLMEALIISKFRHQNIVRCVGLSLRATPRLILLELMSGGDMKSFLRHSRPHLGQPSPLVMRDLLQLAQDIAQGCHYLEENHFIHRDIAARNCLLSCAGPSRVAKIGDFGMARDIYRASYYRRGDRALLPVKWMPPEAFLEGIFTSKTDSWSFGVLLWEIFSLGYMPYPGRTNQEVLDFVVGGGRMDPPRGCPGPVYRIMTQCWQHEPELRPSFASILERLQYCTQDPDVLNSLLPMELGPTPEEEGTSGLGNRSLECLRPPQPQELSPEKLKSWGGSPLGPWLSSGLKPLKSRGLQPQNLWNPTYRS

MAP2K7 (human) = MAP2K7 (human) (UniProt O14733)
CHUK (human) = CHUK (human) (UniProt O15111)

LIMK2 (human), sequence (P53671 whole entry, looked up): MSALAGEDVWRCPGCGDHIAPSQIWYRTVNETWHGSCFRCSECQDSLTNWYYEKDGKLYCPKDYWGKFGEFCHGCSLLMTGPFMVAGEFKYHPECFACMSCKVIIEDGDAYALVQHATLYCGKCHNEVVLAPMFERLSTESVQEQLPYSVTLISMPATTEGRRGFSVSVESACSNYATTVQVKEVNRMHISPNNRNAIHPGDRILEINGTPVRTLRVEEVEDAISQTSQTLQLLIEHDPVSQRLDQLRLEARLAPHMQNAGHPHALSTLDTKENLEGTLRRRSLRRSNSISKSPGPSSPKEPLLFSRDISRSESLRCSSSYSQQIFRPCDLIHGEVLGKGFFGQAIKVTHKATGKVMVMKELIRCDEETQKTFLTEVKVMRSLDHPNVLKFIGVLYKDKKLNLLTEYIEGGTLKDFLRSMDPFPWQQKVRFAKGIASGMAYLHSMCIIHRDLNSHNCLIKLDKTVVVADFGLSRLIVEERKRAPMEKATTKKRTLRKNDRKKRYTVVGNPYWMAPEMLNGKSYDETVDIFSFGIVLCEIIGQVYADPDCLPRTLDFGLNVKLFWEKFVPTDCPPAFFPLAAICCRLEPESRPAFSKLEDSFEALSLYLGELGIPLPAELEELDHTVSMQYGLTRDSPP

SMILES | kinase still bound, per cent of control (LIMK2 (human)) | kinase still bound, per cent of control (TNNI3K (human)) | kinase still bound, per cent of control (ALK (human)) | kinase still bound, per cent of control (MAP3K5 (human)) | kinase still bound, per cent of control (ROS1 (human)) | kinase still bound, per cent of control (NIM1 (human)) | kinase still bound, per cent of control (IKBKB (human)) | kinase still bound, per cent of control (CLK3 (human)) | kinase still bound, per cent of control (STK38 (human)) | kinase still bound, per cent of control (RPS6KA2 KD1 (human)) | kinase still bound, per cent of control [1] | kinase still bound, per cent of control (PIK3C2B (human)) | kinase still bound, per cent of control (EPHA2 (human)) | kinase still bound, per cent of control (MLTK (human)) | kinase still bound, per cent of control [2] | kinase still bound, per cent of control (RIOK1 (human)) | kinase still bound, per cent of control (DSTYK (human)) | kinase still bound, per cent of control (STK17A (human)) | kinase still bound, per cent of control (SGK3 (human)) | kinase still bound, per cent of control (MARK3 (human)) | other results
CCN1CCN(Cc2ccc(NC(=O)c3ccc(C)c(/C=C/c4cnc5[nH]ccc5c4OC)c3)cc2C(F)(F)F)CC1 | 2.9% | 1% | 51% | 35% | 100% | 100% | 0.15% | 100% | 72% | 2.7% | 12% | 100% | 1.7% | 0.8% | 64% | 0.75% | 36% | 1.3% | 38% | 38% | kinase still bound, per cent of control (STK11 (human)): 7.9%; kinase still bound, per cent of control (CDK9 (human)): 96%; kinase still bound, per cent of control (CDK14 (human)): 72%; kinase still bound, per cent of control (KDR (human)): 2.6%; kinase still bound, per cent of control (STK36 (human)): 0.3%; kinase still bound, per cent of control (FLT4 (human)): 0.2%; kinase still bound, per cent of control (PLK2 (human)): 60%; kinase still bound, per cent of control (PDPK1 (human)): 65%; kinase still bound, per cent of control (CSF1R (human)): 0%; kinase still bound, per cent of control (STK24 (human)): 20%; kinase still bound, per cent of control (TBK1 (human)): 55%; kinase still bound, per cent of control (RIPK1 (human)): 0.15%; kinase still bound, per cent of control (GSK3B (human)): 99%; kinase still bound, per cent of control (AURKA (human)): 97%; kinase still bound, per cent of control (EGFR (human)): 0.4%; kinase still bound, per cent of control (RPS6KA6 KD1 (human)): 42%; kinase still bound, per cent of control (STK25 (human)): 100%; kinase still bound, per cent of control (LTK (human)): 62%; kinase still bound, per cent of control (MAP2K7 (human)): 1.4%; kinase still bound, per cent of control (CHUK (human)): 0%
CCCS(=O)(=O)Nc1ccc(F)c(C(=O)c2c[nH]c3ncc(Cl)cc23)c1F | 24% | 75% | 14% | 74% | 34% | 92% | 75% | 80% | 78% | 67% | 44% | 84% | 100% | 6% | 67% | 100% | 54% | 44% | 49% | 74% | kinase still bound, per cent of control (STK11 (human)): 79%; kinase still bound, per cent of control (CDK9 (human)): 86%; kinase still bound, per cent of control (CDK14 (human)): 100%; kinase still bound, per cent of control (STK36 (human)): 18%; kinase still bound, per cent of control (FLT4 (human)): 61%; kinase still bound, per cent of control (PLK2 (human)): 83%; kinase still bound, per cent of control (PDPK1 (human)): 85%; kinase still bound, per cent of control (STK24 (human)): 77%; kinase still bound, per cent of control (TBK1 (human)): 100%; kinase still bound, per cent of control (RIPK1 (human)): 53%; kinase still bound, per cent of control (GSK3B (human)): 100%; kinase still bound, per cent of control (AURKA (human)): 60%; kinase still bound, per cent of control (EGFR (human)): 76%; kinase still bound, per cent of control (RPS6KA6 KD1 (human)): 80%; kinase still bound, per cent of control (STK25 (human)): 53%; kinase still bound, per cent of control (LTK (human)): 34%; kinase still bound, per cent of control (MAP2K7 (human)): 83%; kinase still bound, per cent of control (CHUK (human)): 89%
CCN(CCO)CCCOc1ccc2c(Nc3cc(CC(=O)Nc4cccc(F)c4)[nH]n3)ncnc2c1 | 100% | 100% | 98% | 100% | 100% | 97% | 91% | 100% | 56% | 80% | 58% | 58% | 76% | 63% | 50% | 100% | 14% | 46% | 100% | 88% | kinase still bound, per cent of control (STK11 (human)): 80%; kinase still bound, per cent of control (CDK9 (human)): 82%; kinase still bound, per cent of control (CDK14 (human)): 100%; kinase still bound, per cent of control (KDR (human)): 2.7%; kinase still bound, per cent of control (STK36 (human)): 37%; kinase still bound, per cent of control (FLT4 (human)): 38%; kinase still bound, per cent of control (PLK2 (human)): 93%; kinase still bound, per cent of control (PDPK1 (human)): 100%; kinase still bound, per cent of control (CSF1R (human)): 5%; kinase still bound, per cent of control (STK24 (human)): 43%; kinase still bound, per cent of control (TBK1 (human)): 90%; kinase still bound, per cent of control (RIPK1 (human)): 100%; kinase still bound, per cent of control (GSK3B (human)): 100%; kinase still bound, per cent of control (AURKA (human)): 6.5%; kinase still bound, per cent of control (RPS6KA6 KD1 (human)): 74%; kinase still bound, per cent of control (STK25 (human)): 66%; kinase still bound, per cent of control (LTK (human)): 17%; kinase still bound, per cent of control (MAP2K7 (human)): 91%; kinase still bound, per cent of control (CHUK (human)): 100%
